Laboratory results published in PMC9945734 (BMC Medicine, 2023).
Several values for one entry are separate records, joined by “and”; a condition that tells them apart may be missing. Equal values may be shown once.

System: PC-3-KQ and PC-3-KR cells
Assay: RNA-sequencing and differential gene expression
Type: cell-based, human
Parameters: CEP19 tpm_KQ_NTZ / CCNA1 tpm_KQ_NTZ / BTN3A3 tpm_KQ_NTZ / CAPSL tpm_KQ_NTZ / CELF3 tpm_KQ_NTZ / C5orf63 tpm_KQ_NTZ / tpm MSMP / tpm MYH7B / tpm CACNG8 / CNTNAP3B tpm_KQ_NTZ / IL21R tpm_KQ_NTZ / CYP8B1 tpm_KQ_NTZ / C2orf78 tpm_KQ_NTZ / CALB1 tpm_KQ_NTZ / COL4A3 tpm_KQ_NTZ / CFB tpm_KQ_NTZ / PFKFB1 tpm_KQ_NTZ / BTBD11 tpm_KQ_NTZ: scale not given here
Conditions: RNA-Seq
[1] = PC-3-KQ cells with NTZ, replicates NTZ1-3, listed as NTZ

## CC(=O)Oc1ccccc1C(=O)Nc1ncc([N+](=O)[O-])s1 [Nitazoxanide]
[1]
  tpm DMPK: 0.419 and 0.3493 and 0.1665
  tpm DRP2: -0.6676 and -1.3 and -0.607
  tpm ECM2: -0.5146 (2×) and 0.2506
  tpm FAM186B: -0.5789 and -0.1828 and -0.4779
  tpm FER1L6: -0.0478 and 0.008832 and -0.09563
  tpm FLT1: 0.161 and -0.1482 and -0.7906
  tpm FSD2: -0.9288 and -1.378 and -0.8049
  tpm FTH1: 1.05 and 1.051 and 1.128
  tpm FXYD3: -0.3733 and -0.2655 and -0.4971
  tpm GALNT12: 0.1641 and 0.2605 and 0.1597
  tpm GRAMD2A: -1.217 and -0.8334 and -0.5772
  tpm HID1: 1.101 and 0.7299 and 0.9267
  tpm HPSE2: -0.4281 and -0.1645 and -0.06191
  tpm IDO1: -0.05198 and -0.1635 and 0.07694
  tpm IGDCC4: 1.025 and 0.5822 and 0.3088
  tpm INHBA: -0.4046 and -0.5562 and -0.8145
  tpm INHBB: 0.08661 and -0.02356 and -0.07924
  tpm KIAA1755: -0.4724 and -0.3852 and -0.1722
  tpm KLHDC7B: 1.013 and 1.073 and 1.158
  tpm LOC105374299: 0.8275 and 1.276 and 1.486
  tpm LOC107987158: 0.1622 and -0.3121 and -1.443
  tpm LONRF2: 0.1017 (2×) and -0.7266
  tpm MAP7D3: 0.1661 and 0.1563 and -0.001507
  tpm MEF2C: 0.3074 (2×) and -0.8164
  tpm MEOX1: -0.388 and -0.5893 and -0.8851
  tpm MINAR1: 1.487 and 0.4714 and 0.64
  tpm MSMP: -0.1946 and -0.01672 and -0.03466
  tpm MUC4: 0.5142 and 1.164 and 1.212
  tpm MYH7B: -0.4262 and -0.2568 and 0.1543
  tpm PDGFRL: 0.618 and 0.4346 and 0.4486
  tpm PLEKHA7: -0.3096 and -0.2197 and -0.3271
  tpm PLEKHG1: -0.07347 and -0.05792 and -0.2
  tpm PRRT4: 0.01578 and 0.2412 and 0.04865
  tpm RORC: 0.6069 and 0.189 and 1.342
  tpm RP1L1: -0.07855 and -0.3562 and -1.072
  tpm RPP25: 0.2387 and 0.2331 and 0.2609
  tpm SAT1: 0.7632 and 0.7179 and 0.7837
  tpm SAXO2: -1.3 and 0.5697 and 0.468
  tpm SERPINA5: 0.2889 and 0.09986 and -0.2457
  tpm SERPINB3: -1.23 and -0.7997 and -0.9984
  tpm SERPINF2: 0.3503 and 0.1655 and 0.444
  tpm SGK3: -0.2978 and 0.6129 and 0.5003
  tpm SLC22A4: -0.6184 and -1.014
  tpm SLFN11: -0.5865 and -0.5524 (2×)
  tpm SRPX: 0.5121 and 0.498 and 0.6168
  tpm STARD4: 0.9661 and 0.7143
  tpm SVEP1: -0.8267 and -1.268 and -1.176
  tpm TBX2: 0.468 and 0.2574 and 0.908
  tpm TCN1: 0.4136 and 0.08826 and 0.5034
  tpm TNF: 0.3176 and 0.1804
  tpm TNFRSF6B: -0.5827 and 0.1186 and -0.2431
  tpm TNFSF14: 1.093 and 1.162 and 1.079
  tpm TRIM31: -0.6801 and -0.02951 and -0.5211
  tpm UGT2B7: -0.4066 and -0.3815 and -0.4168
  tpm XKRX: -0.4846 and 0.05471 and 0.3317
  tpm ZNF28: 0.116 and -1.142 and -0.2155
  tpm ZNF302: -0.4799 and 0.1803 and -0.08669
PC-3-KQ cells
  AADACL3 Change (KQ-Control vs KQ-NTZ): DOWN
  AADACL3 logFC (KQ-Control vs KQ-NTZ): -1.5511
  ABCA1 Change (KQ-Control vs KQ-NTZ): DOWN
  ABCA1 logFC (KQ-Control vs KQ-NTZ): -1.1023
  ABCB4 Change (KQ-Control vs KQ-NTZ): DOWN
  ABCB4 logFC (KQ-Control vs KQ-NTZ): -1.0876
  ADORA1 Change (KQ-Control vs KQ-NTZ): DOWN
  ADORA1 logFC (KQ-Control vs KQ-NTZ): -0.6297
  ANKRD36C Change (KQ-Control vs KQ-NTZ): DOWN
  ANKRD36C logFC (KQ-Control vs KQ-NTZ): -0.823
  ANKRD63 Change (KQ-Control vs KQ-NTZ): DOWN
  ANKRD63 logFC (KQ-Control vs KQ-NTZ): -0.8191
  ANXA8L1 Change (KQ-Control vs KQ-NTZ): DOWN
  ANXA8L1 logFC (KQ-Control vs KQ-NTZ): -1.2337
  APLN Change (KQ-Control vs KQ-NTZ): DOWN
  APLN logFC (KQ-Control vs KQ-NTZ): -0.8669
  ARL10 Change (KQ-Control vs KQ-NTZ): DOWN
  ARL10 logFC (KQ-Control vs KQ-NTZ): -0.6715
  ARX logFC (KQ-Control vs KQ-NTZ): 0.8688
  ASB2 Change (KQ-Control vs KQ-NTZ): DOWN
  ASB2 logFC (KQ-Control vs KQ-NTZ): -1.5518
  ASRGL1 Change (KQ-Control vs KQ-NTZ): DOWN
  ASRGL1 logFC (KQ-Control vs KQ-NTZ): -0.6209
  BDKRB2 Change (KQ-Control vs KQ-NTZ): DOWN
  BDKRB2 logFC (KQ-Control vs KQ-NTZ): -1.3479
  BRINP2 Change (KQ-Control vs KQ-NTZ): DOWN
  BRINP2 logFC (KQ-Control vs KQ-NTZ): -0.6846
  BTBD11 Change (KQ-Control vs KQ-NTZ): DOWN
  BTBD11 logFC (KQ-Control vs KQ-NTZ): -1.0629
  C2orf78 Change (KQ-Control vs KQ-NTZ): DOWN
  C2orf78 logFC (KQ-Control vs KQ-NTZ): -0.8606
  CACNG8 Change (KQ-Control vs KQ-NTZ): DOWN
  CACNG8 logFC (KQ-Control vs KQ-NTZ): -1.0729
  CAPSL Change (KQ-Control vs KQ-NTZ): DOWN
  CAPSL logFC (KQ-Control vs KQ-NTZ): -0.8068
  CD14 Change (KQ-Control vs KQ-NTZ): DOWN
  CD14 logFC (KQ-Control vs KQ-NTZ): -2.3874
  CEP19 Change (KQ-Control vs KQ-NTZ): DOWN
  CEP19 logFC (KQ-Control vs KQ-NTZ): -0.5995
  CNTNAP3B Change (KQ-Control vs KQ-NTZ): DOWN
  CNTNAP3B logFC (KQ-Control vs KQ-NTZ): -1.4339
  COL4A6 Change (KQ-Control vs KQ-NTZ): DOWN
  COL4A6 logFC (KQ-Control vs KQ-NTZ): -0.6049
  CSF3 Change (KQ-Control vs KQ-NTZ): DOWN
  CSF3 logFC (KQ-Control vs KQ-NTZ): -0.9191
  CXCL5 Change (KQ-Control vs KQ-NTZ): DOWN
  CXCL5 logFC (KQ-Control vs KQ-NTZ): -1.0464
  DEPTOR Change (KQ-Control vs KQ-NTZ): DOWN
  DEPTOR logFC (KQ-Control vs KQ-NTZ): -0.7982
  DMC1 Change (KQ-Control vs KQ-NTZ): DOWN
  DMC1 logFC (KQ-Control vs KQ-NTZ): -0.9749
  DRP2 Change (KQ-Control vs KQ-NTZ): DOWN
  DRP2 logFC (KQ-Control vs KQ-NTZ): -1.0796
  ECM2 Change (KQ-Control vs KQ-NTZ): DOWN
  ECM2 logFC (KQ-Control vs KQ-NTZ): -0.755
  EFCAB6 Change (KQ-Control vs KQ-NTZ): DOWN
  EFCAB6 logFC (KQ-Control vs KQ-NTZ): -0.8325
  FAM43A Change (KQ-Control vs KQ-NTZ): DOWN
  FAM43A logFC (KQ-Control vs KQ-NTZ): -1.1246
  FAM83D Change (KQ-Control vs KQ-NTZ): DOWN
  FAM83D logFC (KQ-Control vs KQ-NTZ): -0.5981
  FAM186B Change (KQ-Control vs KQ-NTZ): DOWN
  FAM186B logFC (KQ-Control vs KQ-NTZ): -0.6856
  FANCI Change (KQ-Control vs KQ-NTZ): DOWN
  FANCI logFC (KQ-Control vs KQ-NTZ): -0.7453
  FANCL Change (KQ-Control vs KQ-NTZ): DOWN
  FANCL logFC (KQ-Control vs KQ-NTZ): -0.6097
  FCGBP Change (KQ-Control vs KQ-NTZ): DOWN
  FCGBP logFC (KQ-Control vs KQ-NTZ): -2.5743
  FLI1 Change (KQ-Control vs KQ-NTZ): DOWN
  FLI1 logFC (KQ-Control vs KQ-NTZ): -0.8219
  FLRT1 Change (KQ-Control vs KQ-NTZ): DOWN
  FLRT1 logFC (KQ-Control vs KQ-NTZ): -0.8174
  FLT1 Change (KQ-Control vs KQ-NTZ): DOWN
  FLT1 logFC (KQ-Control vs KQ-NTZ): -0.8
  FOXI1 Change (KQ-Control vs KQ-NTZ): DOWN
  FOXI1 logFC (KQ-Control vs KQ-NTZ): -1.9605
  FOXP3 Change (KQ-Control vs KQ-NTZ): DOWN
  FOXP3 logFC (KQ-Control vs KQ-NTZ): -1.1132
  FSD2 Change (KQ-Control vs KQ-NTZ): DOWN
  FSD2 logFC (KQ-Control vs KQ-NTZ): -1.2199
  FZD4 Change (KQ-Control vs KQ-NTZ): DOWN
  FZD4 logFC (KQ-Control vs KQ-NTZ): -1.1759
  GBX2 Change (KQ-Control vs KQ-NTZ): DOWN
  GBX2 logFC (KQ-Control vs KQ-NTZ): -0.9793
  GPR19 Change (KQ-Control vs KQ-NTZ): DOWN
  GPR19 logFC (KQ-Control vs KQ-NTZ): -0.6847
  GRAMD2A Change (KQ-Control vs KQ-NTZ): DOWN
  GRAMD2A logFC (KQ-Control vs KQ-NTZ): -1.0971
  H3C1 Change (KQ-Control vs KQ-NTZ): DOWN
  H3C1 logFC (KQ-Control vs KQ-NTZ): -0.9324
  HAS3 Change (KQ-Control vs KQ-NTZ): DOWN
  HAS3 logFC (KQ-Control vs KQ-NTZ): -1.3005
  HPSE2 Change (KQ-Control vs KQ-NTZ): DOWN
  HPSE2 logFC (KQ-Control vs KQ-NTZ): -0.9315
  HSD3B1 Change (KQ-Control vs KQ-NTZ): DOWN
  HSD3B1 logFC (KQ-Control vs KQ-NTZ): -0.7148
  IGF2BP1 Change (KQ-Control vs KQ-NTZ): DOWN
  IGF2BP1 logFC (KQ-Control vs KQ-NTZ): -0.8373
  IGFBP4 Change (KQ-Control vs KQ-NTZ): DOWN
  IGFBP4 logFC (KQ-Control vs KQ-NTZ): -1.0441
  IGSF23 Change (KQ-Control vs KQ-NTZ): DOWN
  IGSF23 logFC (KQ-Control vs KQ-NTZ): -0.7201
